This note sets out measurements from US20250122181A1, “BENZIMIDAZOLES AS MODULATORS OF IL-17” (Janssen Pharmaceutica NV, priority 2021, published 2025).

This experiment has as its system IL-17A-induced G-CSF production in human normal keratinocyte (NHK). Briefly: NHK Assay: IL-17A-induced G-CSF production in human normal keratinocyte. Format: cell-based. Conditions: Homo sapiens, Keratinocyte, 24 h, IL-17A 5 ng/mL, simple average if tested more than once. How it is done:
IL-17A acts directly on keratinocytes through binding to dimeric receptor IL-17RA/RC and drives the production of a number of inflammatory mediators known to be elevated in psoriasis lesional tissue. IL-17A small molecule inhibitors that block the IL-17A to interact with IL-17R would inhibit the IL-17A signaling in its targeted cells such as keratinocytes. The compound functional activity is evaluated for its impact on IL-17A-induced G-CSF production in human normal keratinocyte (NHK).
Adult normal human keratinocytes are cultured in keratinocyte growth medium (Lonza) in a flask till reaching ˜90% confluence, then cells are transferred to a 384-well plate at density of 3000-4000 cell/well. Recombinant human IL-17A (Gibco PHC9174) is pre-incubated with titrated compound or DMSO for 1 h at rt then added to the cell culture plate. The final concentration of IL-17A is 5 ng/mL and DMSO is 0.2%, in the culture containing 5% FBS. Cells are cultured/treated for 24 h at 37° C. Supernatants are collected and G-CSF production is measured through HTRF technology using Human G-CSF Kit (CisBio). G-CSF concentration was extrapolated from the standard curve and IC50 is determined using GraphPad Prism. Cell viability is also evaluated using CellTiter-Glo kit (Promega) and effect of compound on cell viability is compared to DMSO control.

Molecules are shown by their SMILES. pIC50: −log10 of the molar value. Bounds are passed on as bounds.

Compound `[2H]C1([2H])NC(=O)N([C@@H](c2ccc3[nH]c([C@H](COC(C)(C)C(F)(F)F)NC(=O)c4nonc4C)nc3c2)C2CC2)C([2H])([2H])C1(F)F` [Example 80, N—((R)-1-(5-((R)-Cyclopropyl(5,5-difluoro-2-oxotetrahydropyrimidin-1(2H)-yl-4,4,6,6-d4)methyl)-1H-benzo[d]imidazol-2-yl)-2-((1,1,1-trifluoro-2-methylpropan-2-yl)oxy)ethyl)-4-methyl-1,2,5-oxadiazole-3-carboxamide] gave a negative logarithm of the IC50 (pIC50) above 7.30.

In the case of `[2H]C1([2H])NC(=O)N([C@@H](c2ccc3[nH]c([C@H](COC(C)(C)C(F)(F)F)NC(=O)c4nonc4C)nc3c2)C2CC2)CC1(F)F` [Example 81, N-[(1R)-1-[5-[(R)-Cyclopropyl-(4,4-dideuterio-5,5-difluoro-2-oxo-hexahydropyrimidin-1-yl)methyl]-1H-benzimidazol-2-yl]-2-(2,2,2-trifluoro-1,1-dimethyl-ethoxy)ethyl]-4-methyl-1,2,5-oxadiazole-3-carboxamide], the pIC50 is above 7.30.

For `[2H]C1([2H])NC(=O)N([C@@H](c2ccc3[nH]c([C@H](COC(C)(C)C(F)(F)F)NC(=O)c4nonc4C4CC4)nc3c2)C2CC2)CC1(F)F` [Example 82, 4-Cyclopropyl-N-[(1R)-1-[5-[(R)-cyclopropyl-(4,4-dideuterio-5,5-difluoro-2-oxo-hexahydropyrimidin-1-yl)methyl]-1H-benzimidazol-2-yl]-2-(2,2,2-trifluoro-1,1-dimethyl-ethoxy)ethyl]-1,2,5-oxadiazole-3-carboxamide], the pIC50 is above 7.30.

`Cc1nonc1C(=O)N[C@H](c1nc2c(F)cc([C@@H](C3CC3)N3C[C@@H](C(F)(F)F)NC3=O)cc2[nH]1)[C@@H](C)O[C@H](C)C(F)(F)F` [Example 86, N-[(1R,2R)-1-[6-[(R)-Cyclopropyl-[(4S)-2-oxo-4-(trifluoromethyl)imidazolidin-1-yl]methyl]-4-fluoro-1H-benzimidazol-2-yl]-2-[(1R)-2,2,2-trifluoro-1-methyl-ethoxy]propyl]-4-methyl-1,2,5-oxadiazole-3-carboxamide] gave a negative-log IC50 (pIC50) above 7.30.

Regarding `Cc1nonc1C(=O)N[C@H](c1nc2ccc(CN3C[C@@H](C(F)(F)F)NC3=O)c(F)c2[nH]1)[C@@H](C)O[C@H](C)C(F)(F)F` [Example 92, N-[(1R,2R)-1-[7-Fluoro-6-[[(4S)-2-oxo-4-(trifluoromethyl)imidazolidin-1-yl]methyl]-1H-benzimidazol-2-yl]-2-[(1R)-2,2,2-trifluoro-1-methyl-ethoxy]propyl]-4-methyl-1,2,5-oxadiazole-3-carboxamide], the negative logarithm of the IC50 (pIC50) is above 7.30.

With `C[C@@H](O[C@H](C)C(F)(F)F)[C@H](NC(=O)c1nonc1C1CC1)c1nc2ccc(CN3C[C@@H](C(F)(F)F)NC3=O)c(F)c2[nH]1` [Example 93, 4-Cyclopropyl-N-[(1R,2R)-1-[7-fluoro-6-[[(4S)-2-oxo-4-(trifluoromethyl)imidazolidin-1-yl]methyl]-1H-benzimidazol-2-yl]-2-[(1R)-2,2,2-trifluoro-1-methyl-ethoxy]propyl]-1,2,5-oxadiazole-3-carboxamide], the negative logarithm of the IC50 (pIC50) is above 7.30.
